Assay results from ChEMBL document CHEMBL3351754, “Rational use of plasma protein and tissue binding data in drug design” (J Med Chem, 2014).

Legend:
[1] = Fraction unbound in 100% human serum; format: ADME, cell-free
[2] = Fraction unbound in mouse brain

| SMILES | fraction unbound [1] | fraction unbound [2] |
| --- | --- | --- |
| O=C(O)[C@H](Oc1cccc(C(F)(F)F)c1)c1ccc(Cl)cc1 [MBX-102 ACID FORM] | 0.009 |  |
| CCCC(C)(COC(N)=O)COC(N)=O [MEPROBAMATE] |  | 0.76 |
